# Results taken from US11647776B2, “Extract, consumable product and method for enriching bioactive metabolite in an extract” (Brightseed, Inc., priority 2019, dated 2023).
# Tests used:
# red potatoes [1] = test: wounding combined with precursor exposure: N-trans-feruloyltyramine production in sliced red potatoes; set-up: species or system Solanum tuberosum; conditions: sliced red potatoes dipped in 400 μM tyramine or citric acid (pH ~4); for N-trans-feruloyltyramine production: 4 days at room temperature, water control
# Protocol: Red potatoes were sliced (i.e., and boiled in water for 6 minutes or dipped into abiotic […]) aqueous solutions of 400 μM tyramine or citric acid (pH ˜4).
# For this analysis, red potatoes were sliced to a standard thickness (¼ inch; two potatoes/time point). Subsequently, the potato slices were either boiled in water for 6 minutes, or dipped into aqueous solutions of 400 μM tyramine (as precursor) or citric acid (pH ˜4; as a preservative), or water (control). The potato slices were loosely covered to allow for air flow and incubated for 4 days at room temperature.
# Solanum tuberosum = test: wounding response of potato tubers (N-trans-feruloyltyramine production); conditions: wounded potatoes
# Protocol: Thus, it was determined whether elevated levels tyramine containing hydroxycinnamic acid amides could be generated in situ by subjecting a plant to an abiotic stress, e.g., wounding. In particular, yellow tubers of Solanum tuberosum were wounded by wounding and production of N-trans-feruloyltyramine in the tuber was assessed 1, 5 and 9 days after wounding.
# red potatoes [2] = test: wounding combined with THT enzyme elicitors: N-trans-feruloyltyramine production in sliced red potatoes; set-up: species or system Solanum tuberosum; conditions: sliced red potatoes dipped in 1 mg/ml laminaran, 10 mg/ml inactivated cordy-gen fungi or 10 mg/ml live endomycorrhizal fungi; 4 or 8 days at room temperature; water control
# Protocol: Red potatoes were sliced (i.e., wounded) and dipped into aqueous solutions of 10 mg/ml live endomycorrhizal fungi, 10 mg/ml inactivated cordy-gen fungi, or 1 mg/ml laminaran (polysaccharide from brown algae).
# For this analysis, red potatoes were sliced to a standard thickness. Subsequently, the potato slices were dipped into solutions of 10 mg/ml live endomycorrhizal fungi, 10 mg/ml inactivated cordy-gen fungi (from Mycopia), 1 mg/ml laminaran (polysaccharide from brown algae) or water (control) The potato slices were loosely covered to allow for air flow and incubated for 4 or 8 days at room temperature.
production of N-trans-feruloyltyramine in response to wounding (red potatoes [2]),Compound,browning of the wounded potato slices (red potatoes [1]),N-trans-feruloyltyramine production (red potatoes [1]),effect on the wounding response (Solanum tuberosum)
–,O=C(O)CC(O)(CC(=O)O)C(=O)O [citric acid],inhibited the browning pathway,little effect,–
–,NCCc1ccc(O)cc1 [tyramine],further increased browning,could enhance,enhanced the wounding response
substantially enhanced,laminaran,–,–,–
